Article PMC4503722, “Novel Phenotypic Outcomes Identified for a Public Collection of Approved Drugs from a Publicly Accessible Panel of Assays” (PLoS ONE, 2015)
Like-named read-outs stand apart in the source and are kept apart here.

Tests used:
[1] = tested on: HCT116 cells treated with a GSK3β inhibitor; test: cells; format: cell-based; details: for IC50/EC50, GSK3b inh pretreated_Viability ATP HCT116 (assay number 26): GSK3b inh pretreated
HT-29 = test: cells; format: cell-based
[2] = tested on: endothelial tube formation in co-cultures of ECFCs and ADSCs treated with VEGF; test: cells; format: cell-based, human
Colo320 = test: cells; format: cell-based
SW480 = test: cells; format: cell-based
DLD-1 = test: cells; format: cell-based
SNU-C1 = test: cells; format: cell-based
HCT116 = test: cells; format: cell-based
RKO = test: cells; format: cell-based
[3] = tested on: ECFC/ADSC co-culture cell nuclei number
[4] = assay number 26, GSK3b inhibitor pretreated

COCC(C)N(C(=O)CCl)c1c(C)csc1C (stereo not shown) [NCGC00163935-05]
GSK3b inh pretreated_Viability ATP HCT116 IC50/EC50 [1, 4]: > 20 µM
Basal_Viability ATP HT-29 IC50/EC50 (HT-29; assay number 28, basal): > 20 µM
VEGF_ADSC\ECFC Angio CD31 TubeArea IC50/EC50 [2]: > 10 µM
Basal_Viability ATP Colo 320 IC50/EC50 (Colo320; assay number 27, basal): > 20 µM
Basal_Viability ATP SW480 IC50/EC50 (SW480; assay number 24, basal): > 20 µM
Basal_Viability ATP DLD-1 IC50/EC50 (DLD-1; assay number 23, basal): > 20 µM
Basal_Viability ATP SNU-C1 IC50/EC50 (SNU-C1; assay number 30, basal): > 20 µM
Basal_Viability ATP HCT116 IC50/EC50 (HCT116; assay number 25, basal): > 20 µM
Basal_Viability ATP RKO IC50/EC50 (RKO; assay number 29, basal): > 20 µM
VEGF_ADSC\ECFC Angio Hoechst NucArea IC50/EC50 [3]: > 10 µM

CCCCN1CCCC1C(=O)Nc1c(C)cc(C)cc1C (stereo not shown) [NCGC00160363-03]
GSK3b inh pretreated_Viability ATP HCT116 IC50/EC50 [1, 4]: > 20 µM
Basal_Viability ATP HT-29 IC50/EC50 (HT-29; assay number 28, basal): > 20 µM
VEGF_ADSC\ECFC Angio CD31 TubeArea IC50/EC50 [2]: > 10 µM
Basal_Viability ATP Colo 320 IC50/EC50 (Colo320; assay number 27, basal): > 20 µM
Basal_Viability ATP SW480 IC50/EC50 (SW480; assay number 24, basal): > 20 µM
Basal_Viability ATP DLD-1 IC50/EC50 (DLD-1; assay number 23, basal): > 20 µM
Basal_Viability ATP SNU-C1 IC50/EC50 (SNU-C1; assay number 30, basal): > 20 µM
Basal_Viability ATP HCT116 IC50/EC50 (HCT116; assay number 25, basal): > 20 µM
Basal_Viability ATP RKO IC50/EC50 (RKO; assay number 29, basal): > 20 µM
VEGF_ADSC\ECFC Angio Hoechst NucArea IC50/EC50 [3]: > 10 µM

O=C(Nc1ccc(Cl)cc1)Nc1ccc(Cl)c(Cl)c1 [NCGC00164034-05]
IC50 ([1]; assay number 26, GSK3b inhibitor pretreated, read-out: GSK3b inh pretreated_Viability ATP HCT116 summarized IC50): 0.362 µM
IC50 (HT-29; assay number 28, basal, read-out: Basal_Viability ATP HT-29 summarized IC50): 0.383 µM
IC50 ([2]; read-out: VEGF_ADSC\ECFC Angio CD31 TubeArea summarized IC50): > 10 µM
IC50 (Colo320; assay number 27, basal, read-out: Basal_Viability ATP Colo 320 summarized IC50): 0.362 µM
IC50 (SW480; assay number 24, basal, read-out: Basal_Viability ATP SW480 summarized IC50): 0.897 µM
IC50 (DLD-1; assay number 23, basal, read-out: Basal_Viability ATP DLD-1 summarized IC50): 0.323 µM
IC50 (SNU-C1; assay number 30, basal, read-out: Basal_Viability ATP SNU-C1 summarized IC50): 0.335 µM
IC50 (HCT116; assay number 25, basal, read-out: Basal_Viability ATP HCT116 summarized IC50): 0.228 µM
IC50 (RKO; assay number 29, basal, read-out: Basal_Viability ATP RKO summarized IC50): 0.288 µM
IC50 ([3]; read-out: VEGF_ADSC\ECFC Angio Hoechst NucArea summarized IC50): > 10 µM

O=[N+]([O-])c1cccc(S(=O)(=O)NCCNS(=O)(=O)c2cccc([N+](=O)[O-])c2)c1 [NCGC00160679-02]
GSK3b inh pretreated_Viability ATP HCT116 IC50/EC50 [1, 4]: > 20 µM
Basal_Viability ATP HT-29 IC50/EC50 (HT-29; assay number 28, basal): > 20 µM
VEGF_ADSC\ECFC Angio CD31 TubeArea IC50/EC50 [2]: > 10 µM
Basal_Viability ATP Colo 320 IC50/EC50 (Colo320; assay number 27, basal): > 20 µM
Basal_Viability ATP SW480 IC50/EC50 (SW480; assay number 24, basal): > 20 µM
Basal_Viability ATP DLD-1 IC50/EC50 (DLD-1; assay number 23, basal): > 20 µM
Basal_Viability ATP SNU-C1 IC50/EC50 (SNU-C1; assay number 30, basal): > 20 µM
Basal_Viability ATP HCT116 IC50/EC50 (HCT116; assay number 25, basal): > 20 µM
Basal_Viability ATP RKO IC50/EC50 (RKO; assay number 29, basal): > 20 µM
VEGF_ADSC\ECFC Angio Hoechst NucArea IC50/EC50 [3]: > 10 µM

ClC1=C(Cl)C2(Cl)C(CBr)CC1(Cl)C2(Cl)Cl (stereo not shown) [NCGC00166203-02]
IC50/EC50, GSK3b inh pretreated_Viability ATP HCT116 (assay number 26) [1]: > 20 µM
IC50/EC50, Basal_Viability ATP HT-29 (assay number 28) (HT-29; basal): > 20 µM
IC50/EC50, VEGF_ADSC\ECFC Angio CD31 TubeArea (assay number 2) [2]: > 10 µM
IC50/EC50, Basal_Viability ATP Colo 320 (assay number 27) (Colo320; basal): > 20 µM
IC50/EC50, Basal_Viability ATP SW480 (assay number 24) (SW480; basal): > 20 µM
IC50/EC50, Basal_Viability ATP DLD-1 (assay number 23) (DLD-1; basal): > 20 µM
IC50/EC50, Basal_Viability ATP SNU-C1 (assay number 30) (SNU-C1; basal): > 20 µM
IC50/EC50, Basal_Viability ATP HCT116 (assay number 25) (HCT116; basal): > 20 µM
IC50/EC50, Basal_Viability ATP RKO (assay number 29) (RKO; basal): > 20 µM
IC50/EC50, VEGF_ADSC\ECFC Angio Hoechst NucArea (assay number 3) [3]: 9.9697 µM

Cc1cccc(Nc2cc(Cl)nc(SCC(=O)O)n2)c1C [NCGC00014702-15]
IC50/EC50, GSK3b inh pretreated_Viability ATP HCT116 (assay number 26) [1]: > 20 µM
IC50/EC50, Basal_Viability ATP HT-29 (assay number 28) (HT-29; basal): > 20 µM
IC50/EC50, VEGF_ADSC\ECFC Angio CD31 TubeArea (assay number 2) [2]: > 10 µM
IC50/EC50, Basal_Viability ATP Colo 320 (assay number 27) (Colo320; basal): > 20 µM
IC50/EC50, Basal_Viability ATP SW480 (assay number 24) (SW480; basal): > 20 µM
IC50/EC50, Basal_Viability ATP DLD-1 (assay number 23) (DLD-1; basal): > 20 µM
IC50/EC50, Basal_Viability ATP SNU-C1 (assay number 30) (SNU-C1; basal): > 20 µM
IC50/EC50, Basal_Viability ATP HCT116 (assay number 25) (HCT116; basal): > 20 µM
IC50/EC50, Basal_Viability ATP RKO (assay number 29) (RKO; basal): > 20 µM
IC50/EC50, VEGF_ADSC\ECFC Angio Hoechst NucArea (assay number 3) [3]: > 10 µM

Cc1cc2nc3ccc(=[N+](C)C)cc-3sc2cc1N.[Cl-] [NCGC00181775-02]
GSK3b inh pretreated_Viability ATP HCT116 IC50/EC50 [1]: 1.693 µM
Basal_Viability ATP HT-29 IC50/EC50 (HT-29): 5.063 µM
VEGF_ADSC\ECFC Angio CD31 TubeArea IC50/EC50 [2]: 2.45 µM
Basal_Viability ATP Colo 320 IC50/EC50 (Colo320): 0.9874 µM
Basal_Viability ATP SW480 IC50/EC50 (SW480): 1.397 µM
Basal_Viability ATP DLD-1 IC50/EC50 (DLD-1): 9.38 µM
Basal_Viability ATP SNU-C1 IC50/EC50 (SNU-C1): 5.5567 µM
Basal_Viability ATP HCT116 IC50/EC50 (HCT116): 2.782 µM
Basal_Viability ATP RKO IC50/EC50 (RKO): 0.9955 µM
VEGF_ADSC\ECFC Angio Hoechst NucArea IC50/EC50 [3]: 8.146 µM
